≈ marks a conversion by molar mass, not a printed value.
Key:
Rhizoctonia solani = type: cell-based; conditions: R. solani
Musca domestica = experiment: Topical test on houseflies (MD); type: in vivo; conditions: for MD (LD50): houseflies, topical on thorax, kill assessed 24 and 48 h
Experimental: (§1) Pesticidal activity was assessed against houseflies, mustard beetles, mites and whitefly using the following methods.
Houseflies (MD) (Musca domestica)
Female flies were treated on the thorax with a one microliter drop of test compound dissolved in acetone. Two replicates of 15 flies were used at each dose rate and 6 dose rates were used per compound under test. After treatment, the flies were maintained at a temperature of 20°±1° C. and kill was assessed 24 and 48 hours after treatment. LD50 values were calculated in micrograms of test compound per fly (see Sawicki et al., Bulletin of the World Health Organisation, 35, 893 (1966) and Sawicki et al., Entomologia and Exp. Appli 10, 253, (1967).
(§2) The values given are LD50 (μg/insect) or LC50 (ppm solution of test compound) unless otherwise specified.

Phaedon cochleariae Fab = experiment: Topical test on mustard beetles (PC); type: in vivo; conditions: for PC (LD50): mustard beetles, topical, 48 h
Experimental: as §1
Mustard beetles (PC) (Phaedon cochleariae Fab)
A one microliter drop of an acetone solution of the test compound was applied ventrally to adult mustard beetles using a micro drop applicator. The treated insects were maintained for 48 hours after which time kill was assessed. Two replicates each of 20 to 25 mustard beetles were used at each dose level and 5 dose levels were treated comparably. LD50 values were calculated as for houseflies.
as §2

Tetranychus urticae = experiment: Immersion test on mites (TU), susceptible strain GSS; type: in vivo; conditions: 72 h, read-out: TU (GSS) (LC50)
Experimental: as §1
Mites (TU) (Tetranychus urticae)
25 adult female mites were immersed in 35 μl of a solution of the test compound in a 1:4 acetone-water mixture for 30 seconds. The treated insects were maintained at 21°±2° C. and kill was assessed 72 hours after treatment. […] Three replicates of 25 mites each were used at each dose rate and 5 or 6 dose rates were used per compound under test. LC50 values were calculated in ppm of the solution of the test compound per insect. The test was carried out using a susceptible strain of mites (GSS) supplied by Schering, AG, Berlin.
as §2

Bemisia tabaci = experiment: Film/vial test on whitefly (BT), susceptible strain SUD-S; type: in vivo; conditions: 48 h, read-out: BT (SUD-S) (LC50)
Experimental: as §1
Whitefly (BT) (Bemisia tabaci)
Acetone solutions (0.100 ml) of the test compounds were placed in 10 ml glass vials and evaporated with rotation to deposit a film of the compound. Thirty adult whiteflies were placed inside the vial, then after 60 minutes, the treated insects were transferred onto untreated cotton leaf discs which were kept moist on a bed of agar gel. The temperature was maintained at 25° C. and mortality assessed after 48 hours. Three replicates were used at each of 5 to 7 dose levels per compound. LC50 values were calculated by using a computer software package ("Polo-PC" available from LeOra Software, Berkeley, Calif.). (See M. R. Cahill and B. Hackett in Proceedings Brighton Crop Protection Conference, 1992). The test was carried out using a susceptible strain of whitefly (SUD-S) which was collected in Sudan in 1978 from cotton.
as §2

Myzus persicae [1] = experiment: Aphicidal activity, topical application; type: in vivo; conditions: susceptible strain USIL, 100 ppm, 72 h, read-out: Topical aphid results, % kill M.P. USIL
Experimental: (§3) Activity against resistant (R) and susceptible (S) strains of aphid (Myzus persicae) and Aphis gossypiae was assessed using the following two methods.
(§4) Batches of 10-15 apterous adults were removed from stock cultures and placed on leaf discs (35 mm in diameter) cut from chinese cabbage and held on an agar bed (25 mm deep) in disposable plastic containers (30 mm high). Using a Burkhard micro-applicator aphids were dosed individually with a 0.25 μm droplet of chemical diluted to the required concentration in acetone. control insects were dosed with acetone only. Mortality and other effects were scored at 24 hour intervals up to and including 72 hour post-treatment, the end-point to which the results relate.
(§5) The test was carried out using a susceptible strain of aphids (US1L) collected in the field in East Anglia, UK and an extremely resistant strain of aphids (794Jz) (R^3 esterase, sensitive ACHE) collected from glasshouses in the UK.
(§6) The values given are % mortality corrected for control data. The control comprised the test solution without active ingredient.

Myzus persicae [2] = experiment: Aphicidal activity, aphid-dip; type: in vivo
Experimental: as §3
(§7) Entrapment rings of fluon were painted halfway up the inside of 4 cm lengths of glass tubing (1.5 cm diameter), and squares of insect-proof gauze were attached to one end of each tube by elastic bands. Fifteen apterous adults were then gently transferred into the tubes using a sable-hair brush, and the tube sealed with a second gauze square.
(§8) Tubes containing aphids were dipped into insecticide solutions for 10 seconds, dried on blotting paper, and then inverted and tapped to cause treated aphids to fall to the unimmersed end of each tube. Handling mortality (usually zero or very slight) was scored after 1 hour, when aphids were transferred onto chinese cabbage leaf-discs (35 mm diameter) on an agar bed (25 mm in depth) in disposible plastic containers (30 mm high) and confined by applying a ring of fluon to the exposed lip of the container. Containers were stored upright, without lids, in a constant environment facility maintained at 25° C. under continuous room lighting. Mortality was assessed at 24, 48 and 72 hours. Two replicates of 15 aphids each were used at each dose rate and 5 or 6 dose rates were used per compound under test.
as §5, §6

Aphis gossypiae = experiment: Aphicidal activity, aphid-dip; type: in vivo; conditions: strain 81-171B, read-out: Aphid-dip result, % kill A.G. 81-171B
Experimental: as §3, §7, §8, §6

Aspergillus niger = type: cell-based; conditions: A. niger
[3] = system: Pyricularia oryzae (=Magnaporthe grisea); type: cell-based; conditions: P. oryzae, 100 mg 1^-1, 7 days
acarids and fungi = conditions: cited from earlier work
Tetranychus = conditions: Tabelle A of EP 0300218 A1; cited from earlier work
Myzus = experiment: Aphicidal activity of comparative compounds (topical or dip not stated); type: in vivo; conditions: prior art t-butyl compound; in the tests set out above; concentration not given
Experimental: as §3
as §4, with “relate. […]” for “relate.”
as §8, with “Containers were stored upright, without lids, in a constant environment facility maintained at 25° C. under continuous room lighting.” left out, “Two replicates of 15 aphids each were used at each dose rate and 5 or 6 dose rates were used per compound under test.” left out

[4] = resistant strain 794JZ, read-out: Aphid-dip result, % kill M.P. 794JZ
[5] = susceptible strain USIL, read-out: Aphid-dip result, % kill M.P. USIL
[6] = 100 mg 1^-1, 4 days at 20-25° C.
[7] = prior art t-butyl compound, tested by the present inventors

| Compound | MD (LD50) (Musca domestica) | PC (LD50) (Phaedon cochleariae Fab) | LC50 (Tetranychus urticae) | LC50 (Bemisia tabaci) | mortality at 100 ppm (Myzus persicae [1]) | mortality at 100 ppm (Myzus persicae [2]; [4]) | mortality at 100 ppm (Myzus persicae [2]; [5]) | mortality at 100 ppm (Aphis gossypiae) | also measured |
| --- | --- | --- | --- | --- | --- | --- | --- | --- | --- |
| COC(=O)Nc1nc2ccccc2[nH]1 [Carbendazim, carbendazim] | – | – | – | – | – | – | – | – | Activity at 1 mg 1^-1 (% inhibition of growth in colony diameter) (Rhizoctonia solani; 1 mg 1^-1): 3.3%; Activity at 5 mg 1^-1 (% inhibition of growth in colony diameter) (Rhizoctonia solani; 5 mg 1^-1): 82.4% |
| C[Si](C)(C)CCC1=C(O)C(=O)c2ccccc2C1=O [Example 2, 2-hydroxy-3-(2'-trimethylsilylethyl)-1,4-naphthoquinone] | 0.69 μg/insect | 0.45 μg/insect | 38 µg/mL (≈ 138 µM) | 2.6 µg/mL (≈ 9.48 µM) | 45% | 54% | 77% | 63% | Activity at 100 mg 1^-1 (% inhibition of growth in colony diameter) (Aspergillus niger; [6]): 18%; Activity at 100 mg 1^-1 (% inhibition of growth in colony diameter) [3]: 67%; Activity at 100 mg 1^-1 (% inhibition of growth in colony diameter) (Rhizoctonia solani; [6]): 35% |
| C[Si](C)(C)CCCCCCCCCC1=C(O)C(=O)c2ccccc2C1=O [Example 12, 2-hydroxy-3-(9-trimethylsilylnonyl)-1,4-naphthoquinone] | 2.8 μg/insect | 0.13 μg/insect | 0.9 µg/mL (≈ 2.42 µM) | 8.6 µg/mL (≈ 23.1 µM) | 89% | 61% | 100% | 93% | – |
| CCCN(CCOc1c(Cl)cc(Cl)cc1Cl)C(=O)n1ccnc1 [Prochloraz, prochloraz, reference compound] | – | – | – | – | – | – | – | – | Activity at 1 mg 1^-1 (% inhibition of growth in colony diameter) (Aspergillus niger; 1 mg 1^-1): 97.8% |
| C[Si](C)(C)C1CCC(C2=C(O)C(=O)c3ccccc3C2=O)CC1 (stereo not shown) [compound of Example 5 (DE 3801743 A1)] | – | – | – | – | – | – | – | – | pesticidal activity relative to other disclosed compounds (acarids and fungi; DE 3801743 A1): not the most pesticidally active compound; acaricidal and fungicidal activity (acarids and fungi; data in DE 3801743 A1): some acaricidal and fungicidal activity; activity against Tetranychus relative to tertiary butyl compound (Tetranychus): less than the corresponding tertiary butyl compound |
| CC(C)(C)C1CCC(C2=C(O)C(=O)c3ccccc3C2=O)CC1 (stereo not shown) [t-butyl compoud, reference compound] | – | – | – | – | – | – | – | – | LD50 against Musca (Musca domestica; [7]): 16 μg/insect; LD50 against Phaedon (Phaedon cochleariae Fab; [7]): 0.53 μg/insect; kill against Myzus (Myzus): 19% |

From patent publication US6162799A, “Pesticidal compounds” (BTG International Limited, priority 1995, dated 2000)
